What was measured:
20S-REGy complex = 20S-REGy complex (Homo sapiens, UniProt P61289); experiment: Peptide degradation assay with Fluorescamine (KH-52), with REGγ; type: biochemical; conditions: 20S-REGγ complex, 50 µM compound, 37°C
Procedure: Degradation of the 52 amino acid peptide KH-52: […], Boulpicante et al.) by the 20S proteasome was followed by amino-acid group generation using Fluorescamine (#F9015, Sigma-Aldrich). The peptide substrate was incubated at 100µM with 25nM 20S, with or without 160nM REGγ and with different concentration of the tested compounds or DMSO. Assays were performed in 100µL in phosphate buffer (pH 6.8) and incubated at 37°C in a water bath for 8 hours. After 4, 6 and 8 hours, 22µL of sample were retrieved and added to 88µL of phosphate buffer before being stored at - 20°C prior to revelation. For the revelation, samples were thawed and filtered in a centrifuge 20min at 4°C 1kDa filters (#OD003C34, Pall Corporation). To avoid any amino group contamination, filtered were washed in phosphate buffer before use. 20µL of filtered-sample were plated in triplicates in a black 96-wells plate (#237108, Thermo Scientific) and 10µL of fluorescamine (1mg/mL, in 100% acetone) was added to the samples. The plate was placed on agitation for 1min before the reaction was stopped by adding 200µL of water to each well. The fluorescence intensity was measured using a FluoSTAR plate reader (BMG Labtech) with excitation wavelength at 355nm and emission wavelength at 460nm.
These findings were established through both in vitro degradation assays and T cell experiments. […]

A375 REGγ KO cells = experiment: MTT assay; type: cell-based; conditions: Homo sapiens, A-375, 24-hour treatment, read-out: IC50 (cell viability)
Procedure: (§1) 2,5×10^4 of MCA cells or 5×10^4 of MCA c13 cells were plated in quadruplicates in clear 96-well plates and incubated overnight. The next day, cells were with various concentration of the tested compounds for 24h. After treatment, media was carefully removed before adding 50µL of new media and 10µL of tetrazolium salt solution (5mg/mL in PBS) and homogeneizing the well by pipetting up and down. The plate was then incubated for 2 hours at 37°C. After incubation, plate was centrifuged 5min at 1500rpm before adding 150µL of DMSO to each well to solubilize the formazan cristals. The plate was incubated on agitation for 10min and absorbance was read at 544nm using a EL808 (Biotek) plate reader.
(§2) To assess the efficacy of compound 58 against tumor cell lines, inventors initially aimed to determine its IC50 values in both mouse and human cell lines. They utilized an MTT assay to ascertain these values for mouse MCA fibrosarcoma and human A375 melanoma cell lines. Specifically, they treated 2.5 × 10^4 MCA WT or MCA REGγ KO cells and 5 × 10^4 human A375 WT or A375 REGγ KO cells with varying concentrations of compound 58 for a 24-hour duration.

[1] = test system: A375 WT cells (A375 melanoma); experiment: MTT assay; type: cell-based; conditions: Homo sapiens, A-375, 24-hour treatment, read-out: IC50 (cell viability)
Procedure: as §1, §2

MCA REGγ KO cells = experiment: MTT assay; type: cell-based; conditions: Mus musculus, 24-hour treatment, read-out: IC50 (cell viability)
Procedure: as §1, §2

[2] = test system: MCA WT cells (MCA fibrosarcoma); experiment: MTT assay; type: cell-based; conditions: Mus musculus, 24-hour treatment, read-out: IC50 (cell viability)
Procedure: as §1, §2

[3] = test system: MCA205-Glob-SL8-intron cells; experiment: MHC-I expression, antigen presentation and PD-L1 surface expression by flow cytometry; type: cell-based, mouse; conditions: 24 hours
Procedure: 2×10^5 of MCA205-Glob-SL8-intron cells were plated in 6-well plates and incubated overnight. The next day cells were treated with different concentrations of drugs for 24h. After treatment, cells were harvested with trypsin before being stained with Zombie Aqua (#423102, Biolegend) and antibodies presented in Table 1 following the protocol provided by the supplier. Samples were acquired on a FACS LSRFortessa X20 (BD Biosciences) and data was analysed with FlowJo (V10) software (TreeStar, Inc.). Table 1: Panels of antibodies for the study of surface expression of MHC-I molecules and SIINFEKL presentation in MCA205-Glob-SL8-intron.
Inventors previously reported a novel and unexpected role of the REGγ-20S complex in the degradation of MHC-I peptides in cancer. In order to elucidate the potential impact of compound 58 on the REGγ-20S complex's modulation of antigenic peptide degradation, they treated mouse MCA205 cells stably expressing the globin-SL8-intron construct with increasing concentrations of compound 58 for 24 hours.
Additionally, they explored the impact of compound 58 on the expression of MHC-I on the surface of MCA205 cells stably expressing the globin-SL8-intron construct. After treating these cells with varying doses of compound 58 for 24 hours, they assessed the levels of murine MHC-I H2-K^b and H2-D^b using flow cytometry. The percentage of cells labeled positively for H2-K^b and H2-D^b in the treated conditions was compared to that in the DMSO control condition.
Furthermore, inventors investigated whether compound 58 had the capability to alter PD-L1 expression on the cell surface of treated tumor cells. To examine this, they exposed MCA205 cells stably expressing the globin-SL8-intron construct to varying concentrations of compound 58 for 24 hours and subsequently assessed PD-L1 expression levels via flow cytometry.

[4] = 5µm to 25 µM, compared to DMSO control

Chain of 20S-REGy complex (P61289 whole entry, one chain of several): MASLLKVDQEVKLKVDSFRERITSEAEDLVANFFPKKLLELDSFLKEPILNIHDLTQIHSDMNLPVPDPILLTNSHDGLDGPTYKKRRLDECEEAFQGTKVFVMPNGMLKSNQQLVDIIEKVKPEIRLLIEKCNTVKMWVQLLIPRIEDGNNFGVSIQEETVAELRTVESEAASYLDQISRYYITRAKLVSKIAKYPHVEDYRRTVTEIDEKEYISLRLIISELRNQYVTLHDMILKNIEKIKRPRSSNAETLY

- IC50 (A375 REGγ KO cells): 486 µM
- IC50 [1]: 150 µM
- IC50 [2]: 39.1 µM
SMILES: Cc1ccc(N=Nc2ccc(C)cc2NC(=O)Nc2ccccc2F)cc1 [compound 58]
- rate of peptide bond hydrolysis of KH-52 (20S-REGy complex): notably decelerated the rate of peptide bond hydrolysis
- IC50 (MCA REGγ KO cells): 99.6 µM
- presentation of the SIINFEKL peptide (Kb-SIINFEKL complexes on the cell surface) ([3]; 25µM, 25-D1.16 antibody, compared to untreated cells): significant increase
- expression of H2-D^b molecules on the cell surface [3, 4]: dose-dependent increase
- expression of H2-K^b molecules on the cell surface [3, 4]: dose-dependent increase
- PD-L1 expression on the cell surface ([3]; varying concentrations, dose-dependent manner): significantly increased PD-L1 expression

From EP4537820A1, “COMPOUND AND COMBINATIONS COMPRISING SAID COMPOUND TO IMPROVE IMMUNE RESPONSE” (Institut Gustave-Roussy, priority 2023, dated 2025)
